In patent US11166980B2, “Compositions, systems, kits, and methods for treating an infection” (Novan, Inc., priority 2016, dated 2021):
In brackets after ≈: the same amount, converted by molar mass. Like-named read-outs stand apart in the source and are kept apart here.

Columns and labels:
Assay type in all cases: cell-based
Malassezia furfur = assay: Minimum inhibitory concentration (supplemented RPMI-1640)
Procedure: (§1) The minimum inhibitory concentration (MIC) of Nitricil™ NVN1 was determined in vitro for 40 strains of fungi to determine the spectrum of antifungal activity. All MIC testing was conducted in accordance with the Clinical and Laboratory Standards Institute (CLSI) guidelines for antimicrobial testing of yeasts (M27-A2) and filamentous fungi (M38-A2), apart from the lipophilic Malassezia species, which were incubated in supplemented buffered RPMI-1640 medium. The challenge strains were exposed to a series of doubling dilutions of Nitricil™ NVN1 prepared in RPMI-1640 medium in triplicate. Fungal species were also challenged with ketoconazole, prepared in DMSO, as a comparator. Tubes were inoculated with fungal suspensions to a final concentration of 0.5-2.5×10^3 cells/mL for yeasts and 0.4-5.0×10^4 colony-forming units (CFU)/mL, for filamentous fungi. The MIC was determined following a 1- to 4-day incubation period.

40 strains of fungi = assay: Minimum inhibitory concentration, whole panel
Procedure: as §1
The broad-spectrum antifungal activity of Nitricil™ NVN1 was assessed via growth inhibition experiments against 40 different fungal strains per CLSI M27-A2 and M38-A2 methodology (CLSI, 2008) for assessment of yeasts and filamentous fungi respectively utilizing ketoconazole as the antifungal comparator. […]

Fusarium oxysporum = assay: Minimum inhibitory concentration (CLSI); details: ATCC62705
Procedure: as §1

Candida tropicalis = assay: Minimum inhibitory concentration (CLSI); details: NCPF8760
Procedure: as §1

Candida albicans = assay: Minimum inhibitory concentration (CLSI)
Procedure: as §1

Fusarium solani = assay: Minimum inhibitory concentration (CLSI); details: ATCC56480
Procedure: as §1

Trichophyton rubrum = assay: Minimum inhibitory concentration (CLSI)
Procedure: as §1

Fusarium keratoplasticum = assay: Minimum inhibitory concentration (CLSI); details: ATCC36031
Procedure: as §1

Epidermophyton floccosum = assay: Minimum inhibitory concentration (CLSI)
Procedure: as §1

[1] = system: Trichophyton mentagrophytes; assay: Minimum inhibitory concentration (CLSI)
Procedure: as §1

Candida lusitaniae = assay: Minimum inhibitory concentration (CLSI); details: Clavispora lusitaniae, ATCC200950
Procedure: as §1

CC(=O)N1CCN(c2ccc(OCC3COC(Cn4ccnc4)(c4ccc(Cl)cc4Cl)O3)cc2)CC1 (centres unmarked) [Ketoconazole, ketoconazole]
MIC (Malassezia furfur; ATCC14521, strain ATCC #14521): > 32 µg/mL
MIC (Malassezia furfur; NCPF3349, strain NCPF #3349): > 32 µg/mL
MIC (Malassezia furfur; NCPF8211, strain NCPF #8211): 16 µg/mL (≈ 30.1 µM)
fold range of MIC values for all fungal species tested (40 strains of fungi): > 500 fold
MIC (Fusarium oxysporum): > 32 µg/mL
MIC (Candida tropicalis): 32 µg/mL (≈ 60.2 µM)
MIC (Candida albicans; Candida albicans, ATCC10231, strain ATCC #10231, read-out: MIC): < 0.063 µg/mL
MIC (Candida albicans; Candida albicans, ATCC58716, strain ATCC #58716, read-out: MIC): 16 µg/mL (≈ 30.1 µM)
MIC (Candida albicans; Candida albicans, ATCC96901, strain ATCC #96901, read-out: MIC): > 32 µg/mL
MIC (Candida albicans; Candida albicans, strain BLSI #112613Ca1, read-out: MIC): > 32 µg/mL
MIC (Candida albicans; strain BLSI #112613Ca2): >32.0 µg/mL
MIC (Fusarium solani): > 32 µg/mL
MIC (Trichophyton rubrum; ATCC10218, strain ATCC #10218, read-out: MIC): < 0.063 µg/mL
MIC (Trichophyton rubrum; ATCC22402, strain ATCC #22402, read-out: MIC): < 0.063 µg/mL
MIC (Trichophyton rubrum; ATCC28188): 0.125 µg/mL (≈ 0.235 µM)
MIC (Trichophyton rubrum; ATCC44697, strain ATCC #44697, read-out: MIC): > 32 µg/mL
MIC (Trichophyton rubrum; NCPF0113, strain NCPF #0113, read-out: MIC): > 32 µg/mL
MIC (Trichophyton rubrum; NCPF0118, strain NCPF #0118, read-out: MIC): < 0.063 µg/mL
MIC (Trichophyton rubrum; NCPF0295, strain NCPF #0295, read-out: MIC): > 32 µg/mL
MIC (Trichophyton rubrum; NCPF5025, strain NCPF #5025, read-out: MIC): > 32 µg/mL
MIC (Trichophyton rubrum; strain ATCC #MYA-4438, read-out: MIC): > 32 µg/mL
MIC (Fusarium keratoplasticum): > 32 µg/mL
MIC (Epidermophyton floccosum; ATCC38826, strain ATCC #38826, read-out: MIC): 4 µg/mL (≈ 7.53 µM)
MIC (Epidermophyton floccosum; ATCC44685): 0.125 µg/mL (≈ 0.235 µM)
MIC (Epidermophyton floccosum; ATCC52061, strain ATCC #52061, read-out: MIC): 1 µg/mL (≈ 1.88 µM)
MIC (Epidermophyton floccosum; ATCC52063, strain ATCC #52063, read-out: MIC): > 32 µg/mL
MIC (Epidermophyton floccosum; ATCC52066, strain ATCC #52066, read-out: MIC): > 32 µg/mL
MIC (Epidermophyton floccosum; NCPF5011, strain NCPF #5011, read-out: MIC): > 32 µg/mL
MIC (Epidermophyton floccosum; NCPF5012, strain NCPF #5012, read-out: MIC): > 32 µg/mL
MIC ([1]; ATCC9533, strain ATCC #9533, read-out: MIC): 1 µg/mL (≈ 1.88 µM)
MIC ([1]; ATCC18749): 0.125 µg/mL (≈ 0.235 µM)
MIC ([1]; ATCC28939, strain ATCC #28939, read-out: MIC): 1 µg/mL (≈ 1.88 µM)
MIC ([1]; NCPF0224, strain NCPF #0224, read-out: MIC): 0.25 µg/mL (≈ 0.47 µM)
MIC ([1]; NCPF5024, strain NCPF #5024, read-out: MIC): 0.5 µg/mL (≈ 0.941 µM)
MIC (Candida lusitaniae): < 0.063 µg/mL
